In PMC9369311, “Examination of Intracellular GPCR-Mediated Signaling with High Temporal Resolution” (International Journal of Molecular Sciences, 2022):
“And” between values parts separate entries of the source, which are not always exact repeats. Equal values may be shown once. “Also recorded” adds a separate entry of the source.

How the values were obtained:
[1] = tested on: adenylyl cyclases; assay: Stopped-flow Ca2+ fluorescence measurements, flpTM-DmOctβ1 cells, NKH477; type: cell-based, human
Description: In successive stopped-flow measurements, the flpTM-DmOctβ1 cells loaded with Fluo-4 were stimulated with increasing octopamine (1 nM–3 µM) and NKH477 (100 nM–300 µM) concentrations. The fluorescence intensities were monitored over 80 s and 100 s, respectively (Figure 4A1,B1). The fluorescence intensities increased and finally reached a plateau with increasing concentrations of both of the ligands. However, the saturating ligand concentrations differed strongly between octopamine (≥300 nM) and NKH477 (≥100 µM). By plotting the maximal changes in fluorescence (ΔF/F0) against ligand concentrations, concentration–response curves were generated and EC50 values were calculated (Figure 4C). […] As observed for the DmOctα1B cell lines (see Figure 3D), the signal response times of flpTM-DmOctβ1 cells were faster at higher ligand concentrations (Figure 4A2,B2). In Figure 4D, the time until the signals were detected (for details, see Materials and Methods, Section 4.4) are plotted for the ligand concentrations covering the calculated EC50 value (dynamic range) and for saturating concentrations (saturating range). The signal response times of the flpTM-DmOctβ1 cells for octopamine were in the range of 30 s (dynamic range) and 6 s (saturating range), whereas the signal detection upon NKH477 application was observed after 50 s (dynamic range) and 16 s (saturating range). The signal response times were about three- to five-fold faster at the saturating concentrations in comparison to the octopamine and NKH477 concentrations in the dynamic range.
As described for the Fluo-4-loaded flpTM-DmOctβ1 cells, similar experiments were performed with the flpTM-DmOctβ1-GCaMP3.0 cells (Figure 5). The cells were successively mixed with increasing concentrations of octopamine (30 pM–100 nM) or NKH477 (30 nM–100 µM) and the fluorescence intensities were recorded over 100 s. For both of the ligands, increasing ligand concentrations led to an increase in the fluorescence emission finally reaching a plateau (Figure 5A1,B1).
For the stopped-flow measurements, the SFM-400 system (BioLogic, Münster, Germany) was used. The main component of the stopped-flow setup is the SFM-400 module with four 10 mL syringes, which can be filled by external valves. The syringes are driven by step motors. The reactants can be mixed in three individual mixing chambers (M1–M3). The volume between M1 and M2 is 21 µL, and 31 µL between M2 and M3. The observation chamber is a quartz cuvette (FC-15) with a reaction volume of 31 µL, installed behind M3. To avoid fluctuations of the reaction mixture in the cuvette, which might lead to noisy and inconsistent signals, a hard stop valve located behind the cuvette can be closed after injection of the reactants. The stopped-flow module is controlled via a MPS-60 control unit (BioLogic). Data acquisition and operation of the system were performed with the Bio-Kine 32 v4.74 software (BioLogic).
The reactions in the cuvette were analyzed via the changes in the fluorescence. A 150 W Xe/Hg-lamp (ALX-220; BioLogic) was used as a light source for the excitation. The excitation light was guided via a light guide towards the cuvette. To determine the wavelength of the excitation light, a 482 nm bandpass filter (482/35 nm BrightLine® single-band bandpass filter; Semrock, Rochester, NY, USA) was used. A heat protection filter (3 mm; KG1, Schott; Mainz, Germany) was placed between the Xe/Hg-lamp and the excitation filter. The fluorescence was detected with a photomultiplier (PMS 200, BioLogic) installed rectangularly to the light path of the excitation light. Between the cuvette and the photomultiplier tube a 535 nm bandpass emission filter (XF3007 535AF35; Horiba, Oberursel, Germany) was placed to select for the emission light being detected by the photomultiplier. A voltage of 600 V was applied to the photomultiplier.
The fluorescence measurements were performed either directly with the cells expressing GCaMP3.0 or after loading the cells with Fluo-4-AM. […]

[2] = tested on: cell endogenous adenylyl cyclases; assay: Ca2+ fluorimetry in plate reader (96 MWP), flpTM-DmOctβ1 cells stimulated with NKH477; type: cell-based, human; conditions: for logEC50 ± SD: given as logEC50 (negative)
Description: In another series of experiments, DmOctβ1 receptor-expressing cell lines were incubated with NKH477, a water soluble agonist of membrane bound adenylyl cyclases, the downstream effectors in DmOctβ1 signaling. Before stimulating the adenylyl cyclase activity, NKH477 has to cross the cell membrane and then binds to the catalytic domain of the enzyme. As before, the flpTM-DmOctβ1 cells were seeded in 96 MWPs and loaded with Fluo-4. In parallel, cells stably co-transfected with GCaMP3.0 were examined (flpTM-DmOctβ1-GCaMP3.0). All of the measurements were performed in the presence of 100 µM IBMX. […] In comparison to the octopamine-evoked responses, the EC50 values for NKH477 differed strongly, with values in the nanomolar range for octopamine and in the micromolar range for NKH477, but confirming the previous data on the octopamine receptors and adenylyl cyclases, respectively. […] Whether this effect was due to differences in the cytosolic distribution of both Ca^2+ detectors and/or the spatial presence of adenylyl cyclase isoforms in membrane domains has not been experimentally addressed.
In this study, we made use of previously established stably transfected cell lines. Briefly, human embryonic kidney cells (HEK293; #85120602, ECACC, Porton Down, Salisbury, UK) were transfected with 10 µg of DmOctα1B receptor-encoding construct by a modified calcium phosphate method. The cell line constitutively expressing the DmOctα1B receptors was propagated in MEM+Glutamax medium containing 10% (v/v) fetal calf serum, 1% (v/v) non-essential amino acids, 1% (v/v) antibiotics/antimycotics, and […] Geneticin (all obtained from ThermoFisher Scientific/Gibco; Dreieich, Germany). A related human embryonic kidney 293-based cell line (HEK293; flpIn cells; Invitrogen/ThermoFisher Scientific; #750-07) that was transfected with a gene encoding a variant of the A2-subunit of the olfactory cyclic nucleotide-gated ion channel (CNG; [31]; flpTM cells, provided by Sibion Biosciences, Jülich, Germany) was transfected with 10 µg of DmOctβ1 receptor-encoding construct. The cell line constitutively expressing the CNG channels and DmOctβ1 receptors was named flpTM-DmOctβ1 and propagated in DMEM+Glutamax medium containing 10% (v/v) fetal calf serum, 1% (v/v) penicillin/streptomycin, and 100 µg/mL Hygromycin, as well as […] Geneticin (all obtained from ThermoFisher Scientific/Gibco). […]
To monitor the intracellular changes of Ca^2+, the cells stably transfected with the genetically encoded calcium indicator GCaMP3.0 (Tian et al., 2009) or loaded with the calcium-sensitive fluorescent dye Fluo-4-AM (Life Technologies/Thermo Fisher Scientific) were analyzed in the plate reader FLUOstar Omega (BMG Labtech, Ortenberg, Germany). […]

[3] = biological target: T1, CNGA2 channel (Bos taurus, UniProt Q03041, T537M); assay: Stopped-flow flash photolysis of caged cAMP in Fluo-4-loaded flpTM-DmOctβ1 cells; type: cell-based, bovine; conditions: for cAMP released by photolysis: based on quantum yield
T1 construct: host or cells: HEK293 flpIn cells (Invitrogen #750-07)
T1 sequence (Q03041 1-663 T537M): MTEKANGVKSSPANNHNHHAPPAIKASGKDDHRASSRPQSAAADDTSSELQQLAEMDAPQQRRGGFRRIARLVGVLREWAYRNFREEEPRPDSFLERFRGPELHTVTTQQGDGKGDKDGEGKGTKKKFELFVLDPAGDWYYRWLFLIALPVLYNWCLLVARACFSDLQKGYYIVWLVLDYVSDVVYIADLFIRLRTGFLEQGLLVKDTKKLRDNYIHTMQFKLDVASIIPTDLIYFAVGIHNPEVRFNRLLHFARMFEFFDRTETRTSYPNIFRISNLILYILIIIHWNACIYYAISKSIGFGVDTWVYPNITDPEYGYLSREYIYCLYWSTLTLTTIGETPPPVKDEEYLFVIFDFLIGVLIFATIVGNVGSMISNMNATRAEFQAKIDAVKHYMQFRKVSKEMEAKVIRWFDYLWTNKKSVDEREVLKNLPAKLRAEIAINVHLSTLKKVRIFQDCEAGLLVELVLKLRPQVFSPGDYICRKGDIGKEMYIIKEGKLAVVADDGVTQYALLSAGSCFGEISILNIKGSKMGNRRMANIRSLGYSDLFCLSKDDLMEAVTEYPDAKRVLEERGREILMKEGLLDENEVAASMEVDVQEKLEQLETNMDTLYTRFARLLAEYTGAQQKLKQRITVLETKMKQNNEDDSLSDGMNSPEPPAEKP
Source text: Neutral density filters that regulate the transmission of light (5%, 25%, 50%, 80%, 100%) were installed, allowing application of different light intensities.
As an integral component of the flpTM-DmOctβ1 cell line, the cAMP-sensitive CNG channel (flpTM; see [32]) enables the detection of cellular cAMP dynamics via mediating cAMP-dependent opening of the channel pore and resulting in Ca^2+ influx. […] A (7-diethylaminocoumarin-4-yl)methyl (DEACM)-modified cAMP was used. The FlpTM-DmOctβ1 cells were loaded with Fluo-4 and DEACM-cAMP. For the stopped-flow measurements, the cells were mixed with ES in the cuvette and after 2 s, a UV-flash was triggered for 10 ms to release cAMP. The fluorescence signals were monitored for 12 s. The time point when triggering the light flash was defined as t = 0. Different concentrations of DEACM-cAMP were used (10 µM, 30 µM, 50 µM, and 100 µM) for loading cells. […] In successive experiments, different light intensities were applied (5%, 25%, 50%, 80%, 100%). The experiments were performed in the presence of 100 µM IBMX to avoid fluctuations in cAMP due to cell-endogenous phosphodiesterases.
For the photolysis of the caged compounds with ultraviolet (UV)-light, a Xe-flash lamp (JML-C2; Rapp Opto Electronics, Wedel, Germany) was coupled to the cuvette via an UV-light permeable light guide (Schott). A UV-2 interference filter was placed between the Xe-flash lamp and light guide to select for the UV-light needed for the photolysis of the caged compounds. Additionally, it prevents the photomultiplier from being hit by light that is able to pass the emission filter. The maximal energy of one light flash at the surface of the cuvette was 107 mJ·cm^−2 (set to C2 and 200 V). Neutral density (ND) filters (AHF Analysentechnik, Tübingen, Germany) could be installed between the interference filter and the Xe-flash lamp to regulate the intensity of the UV-light applied to the cuvette. To maximize the detection of the emission light, a test solution containing 50 nM of fluorescein in ES was added to the cuvette and the light guide was fixed to the Xe/Hg-lamp at a position where the photomultiplier detected maximal intensity.

[4] = flpTM-DmOctβ1-GCaMP3.0 cells, 100 µM IBMX
[5] = flpTM-DmOctβ1 cells loaded with Fluo-4, 100 µM IBMX

Row | EC50 ([1]; stopped-flow, flpTM-DmOctβ1-GCaMP3.0 cells, mean ± SEM) | EC50 ([1]; stopped-flow, flpTM-DmOctβ1 cells loaded with Fluo-4, mean ± SEM) | EC50 [2, 4] | EC50 [2, 5] | time from light flash to rise in fluorescence (Ca2+ signal) ([3]; cells loaded with 10 µM DEACM-cAMP, light intensities of 80% and 100%, 10 ms flash, 100 µM IBMX) | cAMP released by photolysis ([3]; from 10 µM DEACM-cAMP) | cAMP released by photolysis ([3]; from 30 µM DEACM-cAMP) | Structure (SMILES) | Signal Response Time ([1]; dynamic range (concentrations around EC50), flpTM-DmOctβ1-GCaMP3.0 cells) | Signal Response Time ([1]; dynamic range (concentrations around EC50), flpTM-DmOctβ1 cells loaded with Fluo-4) | Signal Response Time ([1]; saturating concentration, flpTM-DmOctβ1-GCaMP3.0 cells, mean ± SEM) | Signal Response Time ([1]; saturating concentration, flpTM-DmOctβ1 cells loaded with Fluo-4, mean ± SEM) | Signal Response Time ([1]; saturating ligand concentration, flpTM-DmOctβ1 cell lines, Fluo-4 and GCaMP3.0) | saturating ligand concentration ([1]; stopped-flow, flpTM-DmOctβ1 cells loaded with Fluo-4) | logEC50 ± SD [2, 4] | logEC50 ± SD [2, 5] | onset of Ca2+ signals after light flash ([3]; cells loaded with 30 µM DEACM-cAMP, 10 ms flash, 100 µM IBMX)
1 | 2.1 µM and 2.12 µM | 3.9 µM and 3.92 µM | 0.1 µM | 4.5 µM |  |  |  | C=C[C@@]1(C)CC(=O)[C@]2(O)[C@@]3(C)[C@@H](O)CCC(C)(C)[C@@H]3[C@H](OC(=O)CCN(C)C)[C@H](OC(C)=O)[C@@]2(C)O1.Cl [NKH477] | 40 s | 50 s | 13 s and 12.70 ± 0.52 s | 13.35 ± 0.82 s | 13 s | ≥ 100 µM | −6.91 ± 0.03 | −5.34 ± 0.09 | 
2 |  |  |  |  | approximately 60 ms | approximately 2 µM | ~6 µM | CCN(CC)c1ccc2c(COP3(=O)OC[C@H]4O[C@@H](n5cnc6c(N)ncnc65)[C@H](O)[C@@H]4O3)cc(=O)oc2c1 (stereo partly shown) [DEACM-cAMP] |  |  |  |  |  |  |  |  | immediately after the light flash; also recorded: immediately after photolysis
